Starred links: 1 amine or outer side, 2 acyl side, 3 side chain; linkers in the order of their positions; H or OH if unused. Non-standard residues stand in square brackets, D forms with d. Residues, ends and D or L forms follow the SMILES beside them. *: point of attachment. NPrTuv(OPr) = CCCO[C@H](C[C@H](C(C)C)N(CCC)[*:1])c1nc(C(=O)[*:2])cs1; Hexanoyl(6-maleimido) = O=C1C=CC(=O)N1CCCCCC(=O)*; X1 = C[C@@H](C[C@H](Cc1ccccc1)N*)C(=O)O; PABC = O=C(OCc1ccc(N[*:1])cc1)[*:2]; NMeI = CC[C@H](C)[C@H](NC)C(=O)O; Cit = NC(=O)NCCC[C@H](N)C(=O)O
Experiments:
Format in all cases: cell-based
T47D = assay: cytotoxic activity, IC50 against T47D cells; details: Homo sapiens; T47D / T-47D cells
MDA-MB-468 = assay: cytotoxic activity, IC50 against MDA-MB-468 cells; details: Homo sapiens
MCF7 = assay: cytotoxic activity, IC50 against MCF7 cells; details: Homo sapiens; MCF7 / MCF-7 cells
SK-N-MC = assay: cytotoxic activity, IC50 against SK-N-MC cells; details: Homo sapiens
HEK293 = assay: cytotoxic activity, IC50 against HEK293 cells; details: Homo sapiens
NCl-H1299 = assay: cytotoxic activity, IC50 against NCl-H1299 cells
HT29 = assay: cytotoxic activity, IC50 against HT29 cells; details: Homo sapiens; HT29 / HT-29 cells
A2780 = assay: cytotoxic activity, IC50 against A2780 cells; details: Homo sapiens
HT1080 = assay: cytotoxic activity, IC50 against HT1080 cells; details: Homo sapiens, HT-1080
BT474 = assay: cytotoxic activity, IC50 against BT474 cells; details: Homo sapiens; BT474 / BT-474 cells
SKBR3 = assay: cytotoxic activity, IC50 against SKBR3 cells; details: Homo sapiens, SK-BR-3
[1] = IC50 as ADC with Herceptin and DAR 2; details: compound conjugated to Herceptin, DAR 2; cell line not given

SMILES	IC50 (MDA-MB-468) [nM]	IC50 (MCF7) [nM]	IC50 (SK-N-MC) [nM]	IC50 (BT474) [nM]	further results
CCCO[C@H](C[C@H](C(C)C)N(CCC)C(=O)[C@@H](NC(=O)[C@H]1CCCCN1C)[C@@H](C)CC)c1nc(C(=O)N[C@@H](Cc2ccc(O)cc2)C[C@H](C)C(=O)NNC(=O)OCCOCCN=[N+]=[N-])cs1 [TAM426]	1.71	1.33	–	–	IC50 (T47D): 2 nM
CCCO[C@H](C[C@H](C(C)C)N(CCC)C(=O)[C@@H](NC(=O)[C@H]1CCCCN1C)[C@@H](C)CC)c1nc(C(=O)N[C@@H](Cc2ccc(OCCNC)cc2)C[C@H](C)C(=O)O)cs1 [TAM365]	3.41	–	0.92	–	IC50 (HEK293): 0.99 nM
CC[C@H](C)[C@H](NC(=O)[C@H]1CCCCN1C)C(=O)N(COC(=O)CC(C)C)[C@H](C[C@@H](OC(C)=O)c1nc(C(=O)N[C@@H](Cc2ccc(O)cc2)C[C@H](C)C(=O)NCCS)cs1)C(C)C [TAM674]	–	–	–	–	IC50 (NCl-H1299): 19 nM; IC50 (HT29): 4.4 nM; IC50 (A2780): 8.7 nM
CCCO[C@H](C[C@H](C(C)C)N(CCC)C(=O)[C@@H](NC(=O)[C@H]([C@@H](C)CC)N(C)C(=O)OCc1ccc(NC(=O)[C@H](CCCNC(N)=O)NC(=O)[C@@H](NC(=O)CCCCCN2C(=O)C=CC2=O)C(C)C)cc1)[C@@H](C)CC)c1nc(C(=O)N[C@@H](Cc2ccccc2)C[C@H](C)C(=O)O)cs1 [TAM551] ({Hexanoyl(6-maleimido)}-V[Cit][PABC][NMeI]I[NPrTuv(OPr)]-X1)	–	–	–	–	IC50 (HT1080): 90 nM
CCCO[C@H](C[C@H](C(C)C)N(CCC)C(=O)[C@@H](NC(=O)[C@H](CC(C)C)NC)[C@@H](C)CC)c1nc(C(=O)N[C@@H](Cc2ccccc2)C[C@H](C)C(=O)O)cs1 [TAM497]	85.6	64.3	83.3	50	–
CCCO[C@H](C[C@H](C(C)C)N(CCC)C(=O)[C@@H](NC(=O)[C@H](CC(C)C)NC)[C@@H](C)CC)c1nc(C(=O)N[C@@H](Cc2ccccc2)C[C@H](C)C(=O)OC)cs1 [TAM496]	214	103	300	95.2	–
CCCO[C@H](C[C@H](C(C)C)N(CCC)C(=O)[C@@H](NC(=O)[C@H]1CCCCN1C)[C@@H](C)CC)c1nc(C(=O)N[C@@H](Cc2ccc(O)cc2)C[C@H](C)C(=O)NNC(=O)OCCOCCOCCN)cs1 [TAM375]	25.8	–	–	–	IC50 (HEK293): 34.6 nM; IC50 (SKBR3): 18.8 nM
CCCO[C@H](C[C@H](C(C)C)N(CCC)C(=O)[C@@H](NC(=O)[C@@H](NC)[C@@H](C)CC)[C@@H](C)CC)c1nc(C(=O)N[C@@H](Cc2ccccc2)C[C@H](C)C(=O)O)cs1 [TAM491]	2.68	1.77	4.57	1.84	–
CCCO[C@H](C[C@H](C(C)C)N(CCC)C(=O)[C@@H](NC(=O)[C@H](NC)[C@@H](C)CC)[C@@H](C)CC)c1nc(C(=O)N[C@@H](Cc2ccc(O)cc2)C[C@H](C)C(=O)O)cs1 [TAM610]	0.3	0.2	0.1	0.1	–
CCCO[C@H](C[C@H](C(C)C)N(CCC)C(=O)[C@@H](NC(=O)[C@H]1CCCCN1C)[C@@H](C)CC)c1nc(C(=O)N[C@@H](Cc2ccc(OC(=O)NCCOCCOCCN)cc2)C[C@H](C)C(=O)O)cs1 [TAM371]	0.13	–	< 0.01	–	IC50 (HEK293): 0.1 nM
CCCO[C@H](C[C@H](C(C)C)N(CCC)C(=O)[C@@H](NC(=O)[C@@H](NC)[C@@H](C)CC)[C@@H](C)CC)c1nc(C(=O)N[C@@H](Cc2ccc(O)cc2)C[C@H](C)C(=O)O)cs1 [TAM599]	0.64	0.65	0.77	–	IC50 (T47D): 1.22 nM
CCCO[C@H](C[C@H](C(C)C)N(CCC)C(=O)[C@@H](NC(=O)[C@H]1CCCCN1C)[C@@H](C)CC)c1nc(C(=O)N[C@@H](Cc2ccc(OCCCCN)cc2)C[C@H](C)C(=O)O)cs1 [TAM486]	81.5	57.5	48.5	50.9	IC50 (T47D): 142 nM
CCCO[C@H](C[C@H](C(C)C)N(CCO)C(=O)[C@@H](NC(=O)[C@H]1CCCCN1C)[C@@H](C)CC)c1nc(C(=O)N[C@@H](Cc2ccc(O)cc2)C[C@H](C)C(=O)O)cs1 [TAM608]	2.24	4.06	1.54	1.69	–
CCCO[C@H](C[C@H](C(C)C)N(CCC)C(=O)[C@@H](NC(=O)[C@H](NC)[C@@H](C)CC)[C@@H](C)CC)c1nc(C(=O)N[C@@H](Cc2ccc(O)cc2)C[C@H](C)C(=O)OC)cs1 [TAM609]	3.32	2.17	2.12	0.5	–
CCCO[C@H](C[C@H](C(C)C)N(CCC)C(=O)[C@@H](NC(=O)[C@H]1CCCCN1)[C@@H](C)CC)c1nc(C(=O)N[C@@H](Cc2ccc(O)cc2)C[C@H](C)C(=O)O)cs1 [TAM334]	–	–	–	5.2	IC50 (HT29): 12.3 nM; IC50 (SKBR3): 5.4 nM
CCCO[C@H](C[C@H](C(C)C)N(CCC)C(=O)[C@@H](NC(=O)[C@H]1CCCCN1C)[C@@H](C)CC)c1nc(C(=O)N[C@@H](Cc2ccccc2)C[C@H](C)C(=O)NNC(=O)OCCOCCN)cs1 [TAM523]	221	92.1	150	65	–
CCCO[C@H](C[C@H](C(C)C)N(CCC)C(=O)[C@@H](NC(=O)[C@H]1CCCCN1C)[C@@H](C)CC)c1nc(C(=O)N[C@@H](Cc2ccccc2)C[C@H](C)C(=O)NN)cs1 [TPM320]	–	–	16	11	–
CCCO[C@H](C[C@H](C(C)C)N(CCC)C(=O)[C@@H](NC(=O)[C@H]([C@@H](C)CC)N(C)C)[C@@H](C)CC)c1nc(C(=O)N[C@@H](Cc2ccccc2)C[C@H](C)C(=O)OC)cs1 [TAM521]	20	6.74	15.3	4.07	–
CCCO[C@H](C[C@H](C(C)C)N(CCC)C(=O)[C@@H](NC(=O)[C@H]1CCCCN1C)[C@@H](C)CC)c1nc(C(=O)N[C@@H](Cc2ccc(O)cc2)C[C@H](C)C(=O)NNC(=O)OCCOCCOCCOCCNC(=O)CCCCCN2C(=O)C=CC2=O)cs1 [TAM552]	–	–	–	–	IC50 (HT1080): 10 nM
CCCO[C@H](C[C@H](C(C)C)N(CCC)C(=O)[C@@H](NC(=O)[C@H]([C@@H](C)CC)N(C)C)[C@@H](C)CC)c1nc(C(=O)N[C@@H](Cc2ccccc2)C[C@H](C)C(=O)O)cs1 [TAM522]	2	–	1.54	0.98	–
CCCO[C@H](C[C@H](C(C)C)N(CCC)C(=O)[C@@H](NC(=O)[C@H]1CCCCN1C)[C@@H](C)CC)c1nc(C(=O)N[C@@H](Cc2ccc(O)cc2)C[C@H](C)C(=O)NCCOCCOCCOCCOCCOCCOCCN)cs1 [TAM597]	–	–	–	–	IC50 [1]: 0.172 nM
CCCO[C@H](C[C@H](C(C)C)N(CCC)C(=O)[C@@H](NC(=O)[C@@H](NC)[C@@H](C)CC)[C@@H](C)CC)c1nc(C(=O)N[C@@H](Cc2ccc(O)cc2)C[C@H](C)C(=O)OC)cs1 [TAM598]	5.15	4.39	6.74	–	IC50 (T47D): 8.17 nM
CCCO[C@H](C[C@H](C(C)C)N(CCC)C(=O)[C@@H](NC(=O)[C@H]1CCCCN1C)[C@@H](C)CC)c1nc(C(=O)N[C@@H](Cc2ccc(O)cc2)C[C@H](C)C(=O)NNC(=O)OCCOCCN)cs1 [TAM428]	16.8	20.6	–	–	IC50 [1]: 0.219 nM; IC50 (T47D): 32 nM
